Patent US6747021B2, “Cryptophycin compound” (Eli Lilly and Company, priority 2000, dated 2004)

Key:
[1] = tested on: MAMMARY ADENOCARCINOMA-16/C/Adr; test: Early stage murine mammary adenocarcinoma-16/C/Adr subcutaneous tumor assay; assay type: in vivo; conditions: IV 10 mg/kg/inj QD 1-7; total dose 70 mg/kg; C3H female mice
Excerpt: (§1) Inhibition of tumors transplanted into mice is an accepted procedure for studying the efficacy of antitumor agents (Corbett, et al., In vivo Methods for Screening and Preclinical Testing; Use of rodent solid tumors for drug discovery., In: Anticancer Drug Development Guide: Preclinical Screening, Clinical Trials, and Approval, B. Teicher (ed), Humana Press Inc., Totowa, N.J., Chapter 5, pages 75-99 (1997); (Corbett, et al., Int. J. Pharmacog., 33, Supplement, 102-122 (1995)). Murine tumors or human xenographs were implanted essentially as described by Corbett in In vivo Methods for Screening and Preclinical Testing; Use of rodent solid tumors for drug discovery. Briefly, the murine tumor or human xenograph was implanted subcutaneously using either 12-gauge trocar implants or counted number of cells. The location for the trocar insertion is midway between the axillary and inguinal region along the side of the mouse. The trocar is slipped approximately ¾ of an inch subcutaneously up toward the axilla before discharging the tumor fragment, and pinching the skin as the trocar is removed. Alternatively, human tumor cells prepared from a […] of donor tumors (5×10^6 cells) were implanted subcutaneously in a hind-leg of a male or female nude mouse (Charles River). Either a test compound in vehicle or vehicle alone was administered by intravenous bolus injection (iv), intraperitoneal injection (ip), or oral gavage (po). Each treatment group, as well as a group of untreated control animals, consisted of five animals per group in each experiment. Subcutaneous tumor response was monitored by tumor volume measurement performed twice each week over the course of the experiment (60-120 days). Body weights were taken as a general measure of toxicity. The subcutaneous tumor data were analyzed by determining the median tumor weight for each treatment group over the course of the experiment and calculating the tumor growth delay as the difference in days for the treatment versus the control tumors to reach a volume of either 500 or 1000 mm^3.
(§2) Cryptophycin-309 (309) was tested against a variety of murine and human tumors substantially as described supra. Cryptophycin-55 glycinate (55-GLY), Taxol, and Adriamycin (Adria) were also included in certain tests for purposes of comparison. Cryptophycin 55 glycinate is known in the art (WO 98/08505, Example 9) and has the following structure: [drawing 9]
(§3) Tumor Weight(mg)=(a×b^2)/2 where a=tumor length (mm) and b=tumor width (mm).
(§4) Tumor Growth Delay=T−C where T is the median time (days) required for the treatment group tumors to reach a predetermined size, and C is the median time (days) for the control group tumors to reach the same size. Tumor-free survivors are excluded from this calculation, and are tabulated separately (Tumor Free).
(§5) Log Kill=Tumor Growth Delay/(3.32)(Td)
(§6) where Tumor Growth Delay is as previously defined and Td is tumor volume doubling time (days), estimated from the best fit straight line from a log-linear growth plot of the control group of tumors in exponential growth (100-800 mg range)
(§7) %T/C mass—The treatment and control groups are measured when the control group tumors reach approximately 700 to 1200 mg in size (median group). The median tumor weight of each group is determined (including zeros). The T/C value in percent is an indication of antitumor effectiveness. A T/C≦42% is considered significant antitumor activity. A T/C<10% is considered to indicate highly significant antitumor activity.
(§8) Body Weight Loss Nadir—A body weight loss nadir (mean of group) of greater than 20% or drug deaths greater than 20% are considered to indicate an excessively toxic dosage in single course trials.
(§9) Activity Rating—the Activity Rating is derived from the Log Kill according to the following table: […]

HUMAN COLON ADEN[…]-116 = test: Early stage human colon adenocarcinoma HCT-116 xenograft assay; assay type: in vivo; conditions: IV 9 mg/kg/inj QD 3-10; total dose 72 mg/kg; Balb/C SCID female mice
Excerpt: as §1, §2, §3, §4, §5, §6, §7, §8, §9

[2] = tested on: HUMAN COLON ADENOCARCINOMA 15; assay type: in vivo; conditions: IV 9.5 mg/kg/inj QD 3-11; total dose 85.5 mg/kg; Balb/C SCID female mice
Excerpt: as §1, §2, §3, §4, §5, §6, §7, §8, §9

[3] = tested on: PANCREATIC DUCTAL ADENOCARCINOMA #02; assay type: in vivo, murine; conditions: IV 8 mg/kg/inj QD 1-8; total dose 64 mg/kg; BDF1 female mice; experiment #
Excerpt: as §1, §2, §3, §4, §5, §6, §7, §8, §9

[4] = tested on: COLON ADENOCARCINOMA-26/A; assay type: in vivo, murine; conditions: IV 10 mg/kg/inj QD 1-7, 9; total dose 80 mg/kg; Balb/C female mice
Excerpt: as §1, §2, §3, §4, §5, §6, §7, §8, §9

[5] = tested on: MAMMARY ADENOCARCINOMA 16/C; assay type: in vivo, murine; conditions: IV 8 mg/kg/inj QD 3-11; total dose 72 mg/kg; C3H/HeN female mice
Excerpt: as §1, §2, §3, §4, §5, §6, §7, §8, §9

[6] = tested on: COLON ADENOCARCINOMA 51/A; test: Early stage murine colon adenocarcinoma 51/A subcutaneous tumor assay; assay type: in vivo; conditions: IV 10 mg/kg/inj QD 1-8; total dose 80 mg/kg; CDF female mice
Excerpt: as §1, §2, §3, §4, §5, §6, §7, §8, §9

SMILES: CC(=O)O[C@H]1C(=O)[C@@]2(C)[C@H]([C@H](OC(=O)c3ccccc3)[C@]3(O)C[C@H](OC(=O)[C@H](O)[C@@H](NC(=O)c4ccccc4)c4ccccc4)C(C)=C1C3(C)C)[C@]1(OC(C)=O)CO[C@@H]1C[C@@H]2O [Taxol]
- DRUG DEATHS [1]: 0/5
- LOG KILL [1]: None
- MEDIAN TUMOR WEIGHT [1]: 1198 mg
- % T/C MASS (HUMAN COLON ADEN[…]-116): 11%
- ACTIVITY RATING (HUMAN COLON ADEN[…]-116): +++ (2.0-2.8)
- DRUG DEATHS (HUMAN COLON ADEN[…]-116): 0/5
- GROWTH DELAY (HUMAN COLON ADEN[…]-116): 17 days
- LOG KILL (HUMAN COLON ADEN[…]-116): 2.0
- MEDIAN TUMOR WEIGHT (HUMAN COLON ADEN[…]-116): 126 mg
- % T/C MASS [2]: 67%
- DRUG DEATHS [2]: 0/5
- GROWTH DELAY [2]: 3.5 days
- LOG KILL [2]: 0.4
- MEDIAN TUMOR WEIGHT [2]: 1044 mg
- % T/C MASS [3]: 79%
- DRUG DEATHS [3]: 0/5
- GROWTH DELAY [3]: 1 days
- LOG KILL [3]: 0.1
- MEDIAN TUMOR WEIGHT [3]: 1296 mg
- % T/C MASS [4]: 57%
- DRUG DEATHS [4]: 0/5
- LOG KILL [4]: None
- MEDIAN TUMOR WEIGHT [4]: 516 mg
- % T/C MASS [5]: 0%
- ACTIVITY RATING [5]: ++++ (>2.8)
- DRUG DEATHS [5]: 0/5
- GROWTH DELAY [5]: 12.5 days
- LOG KILL [5]: 2.9
- MEDIAN TUMOR WEIGHT [5]: 0 mg
- % T/C MASS [6]: 25%
- ACTIVITY RATING [6]: + (0.7-1.2)
- DRUG DEATHS [6]: 0/6
- GROWTH DELAY [6]: 5.6 days
- LOG KILL [6]: 0.7
- MEDIAN TUMOR WEIGHT [6]: 288 mg
